Data on 15 compounds can be found in US20110245284A1, “Alkoxy- and Alkylthio-Substituted Anilinopyrimidines” (Bayer CropScience AG, priority 2008, published 2011).

One data set has as its system Pyricularia oryzae. As to the kind of experiment: whole plant or invertebrate. In kind it is in vivo. The note with it: 120 h, read-out: efficacy.
The nature of data set [1]: logP by LC-MS on reversed-phase columns (C 18), method [b], acidic range pH 2.7. The note with it: for chromatographic logP: pH 2.7, log p. In kind it is physicochemical. As to the method:
(§1) The logP values were determined in accordance with EEC Directive 79/831 Annex V.A8 by HPLC (High Performance Liquid Chromatography) on reversed-phase columns (C 18), using the methods below:
[b] The LC-MS determination in the acidic range is carried out at pH 2.7 using the mobile phases 0.1% aqueous formic acid and acetonitrile (contains 0.1% formic acid), linear gradient from 10% acetonitrile to 95% acetonitrile.

A short description of data set [2]: logP by LC-MS on reversed-phase columns (C 18), method [c], neutral range pH 7.8. In kind it is physicochemical. The note with it: pH 7.8. As to the method: as §1
[c] The LC-MS determination in the neutral range is carried out at pH 7.8 using the mobile phases 0.001 molar aqueous ammonium bicarbonate solution and acetonitrile, linear gradient from 10% acetonitrile to 95% acetonitrile.

The next data set concerns Venturia inaequalis. Briefly: Venturia test (apple) / protective. In kind it is in vivo. The settings on record: 240 h, active compound concentration 100 ppm, evaluation 10 days after inoculation, read-out: efficacy. As to the method: After the spray coating has dried on, the plants are inoculated with an aqueous conidia suspension of the apple scab pathogen Venturia inaequalis and then remain for 1 day in an incubation cabinet at about 20° C. and 100% relative atmospheric humidity.

Another data set has as its system Fusarium proliferatum. As to the kind of experiment: Production of fumonisin FB1 by Fusarium proliferatum (microtitre plates; FB1 by HPLC-MS/MS, growth by OD620). Type of data set: cell-based. The note with it: for IC50: Fusarium proliferatum, 144 h.
The subject of a further data set is Alternaria solani. As to the kind of experiment: Alternaria test (tomato) / protective. In kind it is in vivo. The note with it: 72 h, active compound concentration 100 ppm, evaluation 3 days after inoculation, read-out: efficacy. As to the method: The plants are then placed in an incubation cabinet at about 20° C. and 100% relative atmospheric humidity.
In another data set the test system is Leptosphaeria nodorum. Briefly: Leptosphaeria nodorum test (wheat) / protective. In kind it is in vivo. The settings on record: Parastagonospora nodorum, active compound concentration 500 ppm, evaluation 7-9 days after inoculation, read-out: efficacy. As to the method: Thereafter, the plants are placed in a greenhouse at 90% relative atmospheric humidity and a temperature of 22° C.

Another data set concerns Pyrenophora teres. Briefly: Pyrenophora teres test (barley) / protective. The settings on record: 192 h, active compound concentration 500 ppm, evaluation 8 days after inoculation, read-out: efficacy. Type of data set: in vivo. As to the method: After the spray coating has dried on, the plants are sprayed with a spore suspension of Pyrenophora teres. The plants remain in an incubation cabinet for 48 hours at 20° C. and 100% relative atmospheric humidity.

For the next data set, the system named is Cochliobolus miyabeanus. As to the kind of experiment: Cochliobolus test (rice) / protective. The settings on record: Bipolaris oryzae, in Oryza sativa, 96 h, read-out: efficacy.
The subject of another data set is Rhizoctonia solani. Briefly: Rhizoctonia test (rice) / protective. In kind it is in vivo. The settings on record: 96 h, active compound concentration 250 ppm, evaluation 4 days after inoculation, read-out: efficacy.
The next data set has as its system Sphaerotheca fuliginea. Briefly: Sphaerotheca test (cucumber) / protective. Type of data set: in vivo. The settings on record: Podosphaera fuliginea, 168 h, active compound concentration 500 ppm, evaluation 7 days after inoculation, read-out: efficacy. As to the method:
The plants are subsequently placed in a greenhouse at 70% relative atmospheric humidity and a temperature of 23° C.

The nature of data set [3]: logP by HPLC on reversed-phase columns (C 18), method [a], acidic range pH 2.3. The settings on record: pH 2.3, logP (pH2.3). Type of data set: physicochemical. As to the method:
as §1
[a] The determination is carried out in the acidic range at pH 2.3 using the mobile phases 0.1% aqueous phosphoric acid and acetonitrile, linear gradient from 10% acetonitrile to 95% acetonitrile.

Where [4] appears, read: growth, OD620 at the beginning and after 6 days, read-out: pI50 growth (converted).

Read-outs that look alike come from different tables or passages of the source. Where only a bound is given, the exact number is not on record here.

Method for Cochliobolus miyabeanus: Cochliobolus Test (Rice)/Protective • Solvent: 28.5 parts by weight of acetone • Emulsifier: 1.5 parts by weight of alkylaryl polyglycol ether
1 day after the treatment, the plants are inoculated with an aqueous spore suspension of Cochliobolus miyabeanus. The plants are then placed in a greenhouse at 100% relative atmospheric humidity and 25° C.
Evaluation is carried out 4 days after the inoculation.

Regarding `COC(C)(C)Cc1cccc(Nc2ncc(Cl)c(NC3CC3)n2)c1` [Example 64], the pest or weed control at 250 ppm in the data set on Pyricularia oryzae is no less than 80%. For the same compound, the chromatographic logP (in general, a lipophilicity value derived from retention on a column) in data set [1] is 2.21; in data set [2], 3.81. Besides, the pest or weed control at 100 ppm with Venturia inaequalis and with Alternaria solani was no less than 70% throughout. Also, the IC50 in the data set on Fusarium proliferatum (read-out: pI50 Fum) was 0.631 µM; in the data set with Fusarium proliferatum (setting [4]), 5.01 µM. The pest or weed control at 500 ppm in the data set on Leptosphaeria nodorum and in the data set on Pyrenophora teres was no less than 70% in each case.
As to `COCCc1cccc(Nc2ncc(Cl)c(NC3CC3)n2)c1` [Example 60], the pest or weed control at 250 ppm in the data set with Cochliobolus miyabeanus, in the data set on Pyricularia oryzae and in the data set with Rhizoctonia solani was no less than 80% in each case. The same compound registered a chromatographic logP in data set [1] of 2.41. Also, the pest or weed control at 100 ppm in the data set on Venturia inaequalis and in the data set with Alternaria solani was no less than 70% in each case. Besides, the IC50 is 0.631 µM in the data set with Fusarium proliferatum (read-out: pI50 Fum) and 1.58 µM with Fusarium proliferatum (setting [4]). Besides, the pest or weed control at 500 ppm in the data set with Sphaerotheca fuliginea, in the data set on Leptosphaeria nodorum and with Pyrenophora teres was no less than 70% throughout.
On to `COCc1cccc(Nc2ncc(C(F)(F)F)c(NC3CCC3)n2)c1` [Example 24], for which the pest or weed control at 250 ppm with Pyricularia oryzae and with Rhizoctonia solani was no less than 80% throughout. This compound also gave a chromatographic logP in data set [1] of 3.3. The results for the IC50 with Fusarium proliferatum (read-out: pI50 Fum) and with Fusarium proliferatum (setting [4]) were 2 µM and 7.94 µM, respectively. Also, the pest or weed control at 500 ppm with Leptosphaeria nodorum and in the data set on Pyrenophora teres was no less than 70% in each case.
On to `COC(C)c1cccc(Nc2ncc(Cl)c(NC3CCC3)n2)c1` (stereo not drawn) [Example 15], for which the pest or weed control at 250 ppm in the data set with Cochliobolus miyabeanus, in the data set on Pyricularia oryzae and in the data set on Rhizoctonia solani was no less than 80% throughout. Besides, in data set [1], the chromatographic logP is 2.27. Further, the pest or weed control at 100 ppm in the data set on Venturia inaequalis and in the data set with Alternaria solani was no less than 70% each time. Further, the pest or weed control at 500 ppm in the data set on Sphaerotheca fuliginea, in the data set with Leptosphaeria nodorum and in the data set with Pyrenophora teres was no less than 70% each time.
For the compound `CCSC(C)c1cccc(Nc2ncc(Br)c(NC3CCC3)n2)c1` (stereo not drawn) [Example 12], the chromatographic logP in data set [1] is 3.49. For the same compound, the pest or weed control at 100 ppm in the data set on Venturia inaequalis and in the data set with Alternaria solani was no less than 70% in each case. In addition, the IC50 with Fusarium proliferatum (read-out: pI50 Fum) was 10 µM; with Fusarium proliferatum (setting [4]) it was greater than 50.1 µM. In addition, the pest or weed control at 500 ppm in the data set with Leptosphaeria nodorum and with Pyrenophora teres was no less than 70% each time.
For the compound `CC[S+]([O-])C(C)c1cccc(Nc2ncc(C(F)(F)F)c(NC3CC3)n2)c1` (stereo not drawn) [Example 45], in data set [1] (pH 2.7), the log p is 2.2[b]. Also, the “pI50 Fum” value in the data set on Fusarium proliferatum (fumonisin FB1 production, 6 days at 20° C., HPLC-MS/MS) was 5.0. Moreover, the pI50 growth in the data set on Fusarium proliferatum (growth, OD620 at the beginning and after 6 days) is 4.7.
With `CC[S+]([O-])C(C)c1cccc(Nc2ncc(Cl)c(NC3CCC3)n2)c1` (stereo not drawn) [Example 76], the pest or weed control at 250 ppm in the data set with Cochliobolus miyabeanus, in the data set with Pyricularia oryzae and in the data set on Rhizoctonia solani was no less than 80% each time. Moreover, the chromatographic logP was 1.68 in data set [1] and 2.53 in [2]. Also, the pest or weed control at 100 ppm in the data set with Venturia inaequalis and with Alternaria solani was no less than 70% throughout. In addition, the pest or weed control at 500 ppm with Sphaerotheca fuliginea, in the data set with Leptosphaeria nodorum and in the data set on Pyrenophora teres was no less than 70% each time.
With `CCC(SC)c1cccc(Nc2ncc(C(F)(F)F)c(NC3CC3)n2)c1` (stereo not drawn) [Example 62], the pest or weed control at 250 ppm in the data set on Cochliobolus miyabeanus, with Pyricularia oryzae and in the data set on Rhizoctonia solani was no less than 80% each time. Also, the chromatographic logP in [1] came out at 4.23. Moreover, the pest or weed control at 100 ppm in the data set on Venturia inaequalis and in the data set with Alternaria solani was no less than 70% throughout. Moreover, the IC50 in the data set with Fusarium proliferatum (read-out: pI50 Fum) was 15.8 µM; in the data set with Fusarium proliferatum (setting [4]) it was greater than 50.1 µM. The pest or weed control at 500 ppm with Sphaerotheca fuliginea and in the data set on Leptosphaeria nodorum was no less than 70% throughout.
Turning to `COCC(C)Oc1ccc(Nc2ncc(Br)c(NC3CC3)n2)cc1` (stereo not drawn) [Example 1, 5-Bromo-N^4-cyclopropyl-N^2-{4-[(1-methoxypropan-2-yl)oxy]phenyl}pyrimidine-2,4-diamine], the chromatographic logP in data set [3] and in data set [1] was 1.83 throughout. Besides, the pest or weed control at 100 ppm in the data set with Venturia inaequalis was no less than 70%. Further, the results for the IC50 in the data set with Fusarium proliferatum (read-out: pI50 Fum) and in the data set on Fusarium proliferatum (setting [4]) were 1.26 µM and 6.31 µM, respectively. In the data set on Leptosphaeria nodorum, the pest or weed control at 500 ppm is no less than 70%.
`CCCSc1cccc(Nc2ncc(Br)c(NC3CCC3)n2)c1` [Example 57]: the pest or weed control at 250 ppm with Cochliobolus miyabeanus, with Pyricularia oryzae and in the data set with Rhizoctonia solani was no less than 80% each time. For the same compound, the chromatographic logP in [1] worked out at 3.96. Besides, the pest or weed control at 100 ppm in the data set with Venturia inaequalis and in the data set with Alternaria solani was no less than 70% throughout. Moreover, the pest or weed control at 500 ppm in the data set on Sphaerotheca fuliginea, with Leptosphaeria nodorum and in the data set with Pyrenophora teres was no less than 70% in each case.
`CCCCS(=O)(=O)c1cccc(Nc2ncc(C(F)(F)F)c(NC3CC3)n2)c1` [Example 121]: the pest or weed control at 250 ppm in the data set with Cochliobolus miyabeanus, with Pyricularia oryzae and in the data set on Rhizoctonia solani was no less than 80% in each case. The chromatographic logP came to 3.4 in [1] and 3.46 in data set [2]. Moreover, the pest or weed control at 100 ppm in the data set on Venturia inaequalis and in the data set on Alternaria solani was no less than 70% each time. In addition, the pest or weed control at 500 ppm with Sphaerotheca fuliginea and in the data set with Leptosphaeria nodorum was no less than 70% each time.
`COC(C)c1cccc(Nc2ncc(Br)c(NC3CCC3)n2)c1` (stereo not drawn) [Example 20]: the pest or weed control at 250 ppm in the data set with Cochliobolus miyabeanus, in the data set on Pyricularia oryzae and in the data set with Rhizoctonia solani was no less than 80% in each case. Also, the chromatographic logP in data set [1] was determined as 2.46. The pest or weed control at 100 ppm in the data set with Venturia inaequalis and in the data set with Alternaria solani was no less than 70% throughout. Further, the figures for the IC50 in the data set with Fusarium proliferatum (read-out: pI50 Fum) and in the data set with Fusarium proliferatum (setting [4]) were 0.794 µM and 3.98 µM, respectively. Besides, the pest or weed control at 500 ppm with Leptosphaeria nodorum and with Pyrenophora teres was no less than 70% each time.
With `CCS(=O)(=O)c1cccc(Nc2ncc(Cl)c(NC3CCC3)n2)c1` [Example 27, 5-chloro-N^4-cyclobutyl-N^2-[3-(ethylsulphonyl)phenyl]pyrimidine-2,4-diamine], the chromatographic logP in [3] and in data set [1] was 2.21 in each case. Besides, the pest or weed control at 250 ppm in the data set on Cochliobolus miyabeanus and in the data set on Pyricularia oryzae was no less than 80% throughout. The pest or weed control at 100 ppm in the data set on Venturia inaequalis and in the data set with Alternaria solani was no less than 70% each time. The IC50 is 2 µM in the data set with Fusarium proliferatum (read-out: pI50 Fum) and 20 µM in the data set on Fusarium proliferatum (setting [4]). The pest or weed control at 500 ppm with Sphaerotheca fuliginea and with Leptosphaeria nodorum was no less than 70% in each case.
Turning to `CCS(=O)(=O)C(C)c1cccc(Nc2ncc(Cl)c(NC3CCC3)n2)c1` (stereo not drawn) [Example 77], the pest or weed control at 250 ppm in the data set with Cochliobolus miyabeanus, in the data set with Pyricularia oryzae and with Rhizoctonia solani was no less than 80% each time. The chromatographic logP in data set [1] stood at 1.9; in data set [2] it was 2.98. Further, the pest or weed control at 100 ppm in the data set on Venturia inaequalis and with Alternaria solani was no less than 70% in each case. For the same compound, the pest or weed control at 500 ppm in the data set with Sphaerotheca fuliginea, in the data set on Leptosphaeria nodorum and with Pyrenophora teres was no less than 70% each time.
As for `COC(C)c1cccc(Nc2ncc(Cl)c(NCC(F)(F)F)n2)c1` (stereo not drawn) [Example 83], the pest or weed control at 250 ppm in the data set with Cochliobolus miyabeanus, in the data set on Pyricularia oryzae and with Rhizoctonia solani was no less than 80% throughout. Moreover, the chromatographic logP was 2.82 in data set [1] and 3.18 in data set [2]. Further, the pest or weed control at 100 ppm with Venturia inaequalis and with Alternaria solani was no less than 70% in each case. Moreover, the pest or weed control at 500 ppm with Sphaerotheca fuliginea and with Leptosphaeria nodorum was no less than 70% in each case.
